Earlier results, collected in paper PMC12658903 (RSC Medicinal Chemistry, 2025).

Assays:
furin = conditions: read-out: IC50 furin; cited from earlier work
TMPRSS2 = conditions: read-out: IC50 (μM) TMPRSS2; cited from earlier work
HAT = conditions: read-out: IC50 (μM) HAT; cited from earlier work

Row | SMILES | IC50 (furin) [µM] | IC50 (TMPRSS2) [µM] | IC50 (HAT) [µM]
1 | N=C(N)c1ccc(/N=N/Nc2ccc(C(=N)N)cc2)cc1 [diminazen] | 13.2 |  | 
2 | CN(C)C(=O)COC(=O)Cc1ccc(OC(=O)c2ccc(NC(=N)N)cc2)cc1 [Camostat, camostat] |  | […] | 0.151
